Reference: patent US8624035B2, “Functionalized cyanine having a silane linker arm, a method of preparing thereof and uses thereof” (Universita' Degli Studi di Torino, priority 2008, dated 2014)

Assay: Photodegradation over time under excitation with laser light at 532 nm
Format: physicochemical
Details: after 350 minutes, FIG. 3
Procedure: The emission of nanoparticles is 15-folds higher than the emission of the solution. Moreover, the photodegradation of fluorescent nanoparticles over time was compared to the photodegradation of the cyanine in solution. […] It observed that the cyanine immobilized within the nanoparticle undergoes a 5% photodegradation after 350 minutes, whilst the cyanine dye in solution undergoes a 45% photodegradation within the same time.

## CO[Si](CCCN1/C(=C/C=C/C2=[N+](CCC[Si](OC)(OC)OC)c3ccc(S(=O)(=O)[O-])cc3C2(C)C)C(C)(C)c2cc(S(=O)(=O)[O-])ccc21)(OC)OC.[K+] [Compound 1, 1-propyltrimethoxysilane-1′-propyltrimethoxysilane-3,3,3,3′-tetramethyl-5,5′-disulfonate-indomonocarbocyanine potassium salt]
  photodegradation (percentage of emission compared to time zero): 45%
